Measured values taken from article PMC8997995, “Amphiphilic Cell-Penetrating Peptides Containing Natural and Unnatural Amino Acids as Drug Delivery Agents” (Cells, 2022).
Non-standard residues stand in square brackets, D forms with d. Residues, ends and D or L forms follow the SMILES beside them. Dip = N[C@H](C(=O)O)C(c1ccccc1)c1ccccc1

How the values were obtained:
[1] = Circular dichroism, estimate of secondary structure; assay type: physicochemical; details: CD, 100 µM peptide in water, principal component regression analysis
Description: Samples were prepared in 100 µM concentration dissolved in water only. The cuvette with the 1 mm path length was used for all the measurements. The circular dichroism analysis was performed with a J-1500 Jasco spectrophotometer using nitrogen gas and PM-539 detector. Parameters were selected as follows: data interval 0.1 nm, data points 701, data pitch 0.1 nm, CD scale 200 mdeg/0.1 dOD, FL scale 200 mdeg/0.1 dOD, D.I.T 2 s, bandwidth 1 nm, cell length 1 mm, start mode immediately, scanning mode continuous, scanning speed 50 nm/min, shutter control auto, and N2 flowmeter manual. An average of three readings between 190 and 260 nm were collected for each sample. The analysis was carried out using one of Multivariate Regression Analyses, which is Principal Component Regression (PCR) with a basis set containing 26 proteins reference under the following conditions: standardization of result 100, replaced negative value to zero, and rejection percentage of 1%.

[2] = system: HEK-293 cells; assay type: cell-based, human; details: HEK-293, 25 µM, 24 h incubation, MTS
Description: SK-OV-3, CCRF-CEM, HEK-293, MDA-MB-468, LLC-PK1, and MES-SA were used to determine the cytotoxicity of the synthesized linear and cyclic peptides. About 5000, 10,000, and 50,000 cells were seeded for SK-OV-3, HEK-293, and CCRF-CEM cells, respectively, in 0.1 mL of medium per well of 96-well plates. […]
Adhesive cells were detached with 0.05% trypsin/EDTA after 15 min. […] The cell viability was measured by utilizing Multi-Mode Microplate Reader (SpectraMax M5 model, Molecular Devices, San Jose, CA, USA) after adding 20 µL of the MTS reagent to each well and incubating for 3 additional hours. […] The percentage of cell viability was calculated using the following equation:(1) =(Average OD values of samples treated with the compound /Average OD values of no treatment samples )∗100

With `N=C(N)NCCC[C@@H]1NC(=O)[C@H](C(c2ccccc2)c2ccccc2)NC(=O)[C@H](CCCNC(=N)N)NC(=O)[C@H](C(c2ccccc2)c2ccccc2)NC(=O)[C@H](CCCNC(=N)N)NC(=O)[C@H](C(c2ccccc2)c2ccccc2)NC(=O)[C@H](CCCNC(=N)N)NC(=O)[C@H](C(c2ccccc2)c2ccccc2)NC(=O)[C@H](CCCNC(=N)N)NC(=O)[C@H](C(c2ccccc2)c2ccccc2)NC1=O` [[DipR]5] (cyclo([Dip]R[Dip]R[Dip]R[Dip]R[Dip]R)) the “Other (random coil)” value [1] was 49.9%, the Turn [1] was 16.6% and the α-helix [1] was 21.4%. The β-sheet [1] was 12.1% and the “reduction of cell proliferation” value [2] was 56%.
